# Experimental data as given in ChEMBL document CHEMBL3817731, “Synthesis and investigation of novel benzimidazole derivatives as antifungal agents” (Bioorg Med Chem, 2016).
# Tested on: Candida albicans
# Assay: Antifungal activity against Candida albicans ATCC MYA-2876 after 48 hrs by CLSI M27-A3 method
# Type: functional
# Conditions: ATCC MYA-2876, 48 h
row,MIC [µg/mL],Compound
1,> 31.2,C#CCOc1ccc(-c2nc3ccc(-c4nc5ccc(N6CCN(CCC)CC6)cc5[nH]4)cc3[nH]2)cc1
2,> 31.2,CCN1CCN(c2ccc3nc(-c4ccc5nc(-c6ccc(OC)cc6)[nH]c5c4)[nH]c3c2)CC1
3,> 31.2,CCCN1CCN(c2ccc3nc(-c4ccc5nc(-c6ccc(OC)cc6)[nH]c5c4)[nH]c3c2)CC1

# Tested on: Candida albicans
# Assay: Antifungal activity against Candida albicans ATCC MYA-1237 after 48 hrs by CLSI M27-A3 method
# Type: functional
# Conditions: ATCC MYA-1237, 48 h
row,MIC [µg/mL],Compound
1,> 31.2,C#CCOc1ccc(-c2nc3ccc(-c4nc5ccc(N6CCN(CCC)CC6)cc5[nH]4)cc3[nH]2)cc1
2,> 31.2,CCN1CCN(c2ccc3nc(-c4ccc5nc(-c6ccc(OC)cc6)[nH]c5c4)[nH]c3c2)CC1
3,> 31.2,CCCN1CCN(c2ccc3nc(-c4ccc5nc(-c6ccc(OC)cc6)[nH]c5c4)[nH]c3c2)CC1

# Tested on: Candida parapsilosis
# Assay: Antifungal activity against Candida parapsilosis ATCC 22019 after 48 hrs by CLSI M27-A3 method
# Type: functional
# Conditions: Lodderomyces parapsilosis, ATCC 22019, 48 h
row,MIC [µg/mL],Compound
1,> 31.2,C#CCOc1ccc(-c2nc3ccc(-c4nc5ccc(N6CCN(CCC)CC6)cc5[nH]4)cc3[nH]2)cc1
2,7.8,CCN1CCN(c2ccc3nc(-c4ccc5nc(-c6ccc(OC)cc6)[nH]c5c4)[nH]c3c2)CC1
3,31.2,CCCN1CCN(c2ccc3nc(-c4ccc5nc(-c6ccc(OC)cc6)[nH]c5c4)[nH]c3c2)CC1

# Tested on: Candida albicans
# Assay: Antifungal activity against Candida albicans ATCC MYA-90819 after 48 hrs by CLSI M27-A3 method
# Type: functional
# Conditions: ATCC MYA-90819, 48 h
row,MIC [µg/mL],Compound
1,> 31.2,C#CCOc1ccc(-c2nc3ccc(-c4nc5ccc(N6CCN(CCC)CC6)cc5[nH]4)cc3[nH]2)cc1
2,> 31.2,CCN1CCN(c2ccc3nc(-c4ccc5nc(-c6ccc(OC)cc6)[nH]c5c4)[nH]c3c2)CC1
3,> 31.2,CCCN1CCN(c2ccc3nc(-c4ccc5nc(-c6ccc(OC)cc6)[nH]c5c4)[nH]c3c2)CC1

# Tested on: Aspergillus terreus
# Assay: Antifungal activity against Aspergillus terreus ATCC MYA3633 after 48 hrs by CLSI M38-A2 method
# Type: functional
# Conditions: ATCC MYA3633, 48 h
row,MIC [µg/mL],Compound
1,> 31.2,C#CCOc1ccc(-c2nc3ccc(-c4nc5ccc(N6CCN(CCC)CC6)cc5[nH]4)cc3[nH]2)cc1
2,> 31.2,CCN1CCN(c2ccc3nc(-c4ccc5nc(-c6ccc(OC)cc6)[nH]c5c4)[nH]c3c2)CC1
3,> 31.2,CCCN1CCN(c2ccc3nc(-c4ccc5nc(-c6ccc(OC)cc6)[nH]c5c4)[nH]c3c2)CC1

# Tested on: Aspergillus nidulans
# Assay: Antifungal activity against Aspergillus nidulans ATCC 38163 after 48 hrs by CLSI M38-A2 method
# Type: functional
# Conditions: ATCC 38163, 48 h
row,MIC [µg/mL],Compound
1,> 31.2,C#CCOc1ccc(-c2nc3ccc(-c4nc5ccc(N6CCN(CCC)CC6)cc5[nH]4)cc3[nH]2)cc1
2,> 31.2,CCN1CCN(c2ccc3nc(-c4ccc5nc(-c6ccc(OC)cc6)[nH]c5c4)[nH]c3c2)CC1
3,> 31.2,CCCN1CCN(c2ccc3nc(-c4ccc5nc(-c6ccc(OC)cc6)[nH]c5c4)[nH]c3c2)CC1

# Tested on: Candida albicans
# Assay: Antifungal activity against Candida albicans ATCC 10231 after 48 hrs by CLSI M27-A3 method
# Type: functional
# Conditions: ATCC 10231, 48 h
row,MIC [µg/mL],Compound
1,> 31.2,C#CCOc1ccc(-c2nc3ccc(-c4nc5ccc(N6CCN(CCC)CC6)cc5[nH]4)cc3[nH]2)cc1
2,> 31.2,CCN1CCN(c2ccc3nc(-c4ccc5nc(-c6ccc(OC)cc6)[nH]c5c4)[nH]c3c2)CC1
3,> 31.2,CCCN1CCN(c2ccc3nc(-c4ccc5nc(-c6ccc(OC)cc6)[nH]c5c4)[nH]c3c2)CC1

# Tested on: Candida albicans
# Assay: Antifungal activity against Candida albicans ATCC 64124 after 48 hrs by CLSI M27-A3 method
# Type: functional
# Conditions: ATCC 64124, 48 h
row,MIC [µg/mL],Compound
1,> 31.2,C#CCOc1ccc(-c2nc3ccc(-c4nc5ccc(N6CCN(CCC)CC6)cc5[nH]4)cc3[nH]2)cc1
2,> 31.2,CCN1CCN(c2ccc3nc(-c4ccc5nc(-c6ccc(OC)cc6)[nH]c5c4)[nH]c3c2)CC1
3,> 31.2,CCCN1CCN(c2ccc3nc(-c4ccc5nc(-c6ccc(OC)cc6)[nH]c5c4)[nH]c3c2)CC1

# Tested on: Pichia kudriavzevii
# Assay: Antifungal activity against Candida krusei ATCC 6258 after 48 hrs by CLSI M27-A3 method
# Type: functional
# Conditions: ATCC 6258, 48 h
row,MIC [µg/mL],Compound
1,15.6,C#CCOc1ccc(-c2nc3ccc(-c4nc5ccc(N6CCN(CCC)CC6)cc5[nH]4)cc3[nH]2)cc1
2,31.2,CCN1CCN(c2ccc3nc(-c4ccc5nc(-c6ccc(OC)cc6)[nH]c5c4)[nH]c3c2)CC1
3,7.8,CCCN1CCN(c2ccc3nc(-c4ccc5nc(-c6ccc(OC)cc6)[nH]c5c4)[nH]c3c2)CC1

# Tested on: Nakaseomyces glabratus
# Assay: Antifungal activity against Candida glabrata ATCC 2001 after 48 hrs by CLSI M27-A3 method
# Type: functional
# Conditions: CBS 138, 48 h
row,MIC [µg/mL],Compound
1,> 31.2,C#CCOc1ccc(-c2nc3ccc(-c4nc5ccc(N6CCN(CCC)CC6)cc5[nH]4)cc3[nH]2)cc1
2,7.8,CCN1CCN(c2ccc3nc(-c4ccc5nc(-c6ccc(OC)cc6)[nH]c5c4)[nH]c3c2)CC1
3,> 31.2,CCCN1CCN(c2ccc3nc(-c4ccc5nc(-c6ccc(OC)cc6)[nH]c5c4)[nH]c3c2)CC1

# Tested on: Aspergillus flavus
# Assay: Antifungal activity against Aspergillus flavus ATCC MYA-3631 after 48 hrs by CLSI M38-A2 method
# Type: functional
# Conditions: ATCC MYA-3631, 48 h
row,MIC [µg/mL],Compound
1,> 31.2,C#CCOc1ccc(-c2nc3ccc(-c4nc5ccc(N6CCN(CCC)CC6)cc5[nH]4)cc3[nH]2)cc1
2,> 31.2,CCN1CCN(c2ccc3nc(-c4ccc5nc(-c6ccc(OC)cc6)[nH]c5c4)[nH]c3c2)CC1
3,> 31.2,CCCN1CCN(c2ccc3nc(-c4ccc5nc(-c6ccc(OC)cc6)[nH]c5c4)[nH]c3c2)CC1

# Tested on: Candida albicans
# Assay: Antifungal activity against Candida albicans ATCC MYA-2310 after 48 hrs by CLSI M27-A3 method
# Type: functional
# Conditions: ATCC MYA-2310, 48 h
row,MIC [µg/mL],Compound
1,> 31.2,C#CCOc1ccc(-c2nc3ccc(-c4nc5ccc(N6CCN(CCC)CC6)cc5[nH]4)cc3[nH]2)cc1
2,> 31.2,CCN1CCN(c2ccc3nc(-c4ccc5nc(-c6ccc(OC)cc6)[nH]c5c4)[nH]c3c2)CC1
3,> 31.2,CCCN1CCN(c2ccc3nc(-c4ccc5nc(-c6ccc(OC)cc6)[nH]c5c4)[nH]c3c2)CC1

# Tested on: Candida albicans
# Assay: Antifungal activity against Candida albicans ATCC MYA-1003 after 48 hrs by CLSI M27-A3 method
# Type: functional
# Conditions: ATCC MYA-1003, 48 h
row,MIC [µg/mL],Compound
1,> 31.2,C#CCOc1ccc(-c2nc3ccc(-c4nc5ccc(N6CCN(CCC)CC6)cc5[nH]4)cc3[nH]2)cc1
2,> 31.2,CCN1CCN(c2ccc3nc(-c4ccc5nc(-c6ccc(OC)cc6)[nH]c5c4)[nH]c3c2)CC1
3,> 31.2,CCCN1CCN(c2ccc3nc(-c4ccc5nc(-c6ccc(OC)cc6)[nH]c5c4)[nH]c3c2)CC1
